Experimental findings from BindingDB's records for PubMed 8078486 (Eli Lilly, 1994) are described below.

Experiment [1] deals with 5-hydroxytryptamine receptor 2B (Homo sapiens, UniProt P41595).
Experiment [2] deals with 5-hydroxytryptamine receptor 2B (Rattus norvegicus, UniProt P30994).
Chain of 5-hydroxytryptamine receptor 2B (Rattus norvegicus, UniProt P30994) (P30994 whole entry): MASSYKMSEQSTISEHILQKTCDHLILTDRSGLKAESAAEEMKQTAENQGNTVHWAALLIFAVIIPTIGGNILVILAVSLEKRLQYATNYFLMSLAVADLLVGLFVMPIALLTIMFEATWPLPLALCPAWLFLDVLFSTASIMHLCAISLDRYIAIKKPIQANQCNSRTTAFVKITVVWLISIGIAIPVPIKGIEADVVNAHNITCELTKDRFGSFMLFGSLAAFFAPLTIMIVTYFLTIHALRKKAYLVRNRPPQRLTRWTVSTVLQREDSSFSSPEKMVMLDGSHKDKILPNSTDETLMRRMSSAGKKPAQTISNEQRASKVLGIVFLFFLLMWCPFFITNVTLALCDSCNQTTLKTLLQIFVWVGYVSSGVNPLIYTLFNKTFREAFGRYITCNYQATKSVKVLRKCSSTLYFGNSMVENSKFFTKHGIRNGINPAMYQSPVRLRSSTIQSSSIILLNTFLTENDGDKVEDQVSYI

Chain of 5-hydroxytryptamine receptor 2B (Homo sapiens, UniProt P41595) (P41595 whole entry): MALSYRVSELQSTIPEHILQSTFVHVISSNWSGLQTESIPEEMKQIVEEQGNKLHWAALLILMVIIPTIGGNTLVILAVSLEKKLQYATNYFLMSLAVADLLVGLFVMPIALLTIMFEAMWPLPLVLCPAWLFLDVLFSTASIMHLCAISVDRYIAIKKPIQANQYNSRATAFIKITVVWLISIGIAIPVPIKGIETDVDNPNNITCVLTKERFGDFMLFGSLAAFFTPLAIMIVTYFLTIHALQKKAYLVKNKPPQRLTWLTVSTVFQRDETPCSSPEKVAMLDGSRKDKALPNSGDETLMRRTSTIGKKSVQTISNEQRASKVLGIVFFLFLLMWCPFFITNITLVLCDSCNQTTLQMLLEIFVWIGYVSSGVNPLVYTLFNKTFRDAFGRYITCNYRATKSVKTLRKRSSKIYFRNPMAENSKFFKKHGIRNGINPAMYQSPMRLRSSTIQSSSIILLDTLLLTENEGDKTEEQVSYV

The term Ki denotes the equilibrium dissociation constant of an inhibitor or competing ligand from its target. Read a low Ki as tighter binding. With `Cn1cc(CCN)c2cc(O)ccc21` [5-HT,omega-N-Me], the Ki in experiment [1] came to 11.9 nM. Take `O=C(CCCN1CCC2(CC1)C(=O)NCN2c1ccccc1)c1ccc(F)cc1` [8-[4-(4-fluorophenyl)-4-oxidanylidene-butyl]-1-phenyl-1,3,8-triazaspiro[4.5]decan-4-one]: in experiment [1], the affinity, expressed as Ki, was 697 nM. As for `COc1cc(CC(C)N)c(OC)cc1I` (centres undefined) [[125I]2,5-dimethoxy-4-iodoamphetamine], the inhibition constant (Ki) in experiment [1] came to 19.9 nM; in experiment [2], 26.6 nM.
